Data: patent publication US20150352114A1, “MITOTIC KINESIN Eg5 INHIBITING ANTICANCER AGENTS” (THE CLEVELAND CLINIC FOUNDATION, priority 2014, published 2015)

How the values were obtained:
[1] = test system: 3691 GBM cells; assay: Subcutaneous flank tumor study, 3691 GBM xenograft; assay type: in vivo, mice
Protocol: All animal studies described were approved by the Cleveland Clinic Foundation Institutional Animal Care and Use Committee and conducted in accordance with the NIH Guide for the Care and Use of Laboratory Animals. For subcutaneous tumor studies, 1×10^5 freshly dissociated GBM cells from a xenograft originally derived from a primary GBM patient specimen (3691) were injected into the flanks of 10 six week old female athymic nu/nu mice. Tumors were allowed to reach approximately 0.12 cm^3, at which point animals were randomized into either vehicle control (DMSO) group or ispinesib (10 mg/kg given daily for 7 consecutive days by intraperitoneal injection) (Selleck Chemicals, Houston, Tex.). Tumors were monitored and measured daily using perpendicular diameter measurements for 7 days. Tumor volume was calculated using the ellipsoid formula π/6×larger diameter×(smaller diameter)^2. After the last treatment on Day 7, tumors were removed and weighed then processed for immunofluorescence (as described below). For intracranial implantation studies to evaluate tumor initiation by GSCs, the cells were isolated as described below and pre-exposed to drug or vehicle either in vitro or in vivo. For in vitro pre-exposure studies, GSCs from xenograft 3691 were seeded at single cell density and treated with vehicle or ispinesib (3 nM) for 18 hours (300,000 cells per condition). Drug was then washed off and 2,500 or 25,000 viable GSCs were implanted into the right frontal lobes of male NSG mice (n=10 for vehicle, n=7 for ispinesib). For in vivo pre-exposure studies, subcutaneous tumors were established as described above. When tumors reached ˜0.5 cm^3, mice were randomized into a vehicle (DMSO) or ispinesib (10 mg/kg given daily for 3 consecutive days) group. 4 hours after the final treatment, GSCs were isolated as described below and 1,000 or 10,000 viable GSCs were then intracranially implanted into NSG mice (10 mice per group). Mice were monitored daily for neurological impairment at which time they were sacrificed and brains removed to evaluate for tumor development. […]

[2] = test system: 08-387 GSCs; assay: Nascent process analysis; assay type: cell-based, human; settings: 200 nM; 6-hour time course; p<0.0001
Protocol: 08-387 GSCs enriched in interphase were seeded at 6,000 cells per well of a 6 well plate and allowed to adhere for 1 hour. Cells were then exposed to vehicle or 200 nM ispinesib and images recorded over a 6-hour period using the IncuCyte ZOOM (Essen Biosciences, Ann Arbor, Mich.). Process formation was measured using CellPlayer NeuroTrack Software Module (Essen Biosciences).

[3] = test system: 08-387 GSCs; assay: Cytoskeleton Phospho Antibody Array; assay type: cell-based, human; settings: 200 nM; 7 hours
Protocol: 08-387 GSCs were enriched in G1 as described. Cells were then exposed to vehicle or ispinesib (200 nM) for 7 hours. Following treatment, cells were pelleted and snap frozen in liquid nitrogen before shipping to Full Moon Biosystems for processing to probe a Cytoskeleton Phospho Antibody Array containing 141 highly specific cytoskeleton related antibodies (Sunnyvale, Calif.).

[4] = test system: pCRMP2 (T514) in interphase GSCs; assay: CRMP2 phosphorylation immunoblot; assay type: cell-based, human; settings: 200 nM; 6-hour time course; GSCs
Protocol: FIGS. 8(A-B) illustrate that Eg5 impacts microtubule growth through the CRMP-tubulin deposition pathway; (A) 08-387 GSCs enriched in interphase were exposed to vehicle (DMSO) or ispinesib (200 nM) and harvested for whole cell lysates every two hours over a 6 hour time course. Resulting lysates were probed for CRMP2 and pCRMP2 (T514); (B) Human brain microvascular endothelial cells (HuBrMVECs) were treated with vehicle (DMSO) or ispinesib (200 nM) and harvested for whole cell lysates every three hours over a 6 hour time course. Resulting lysates were probed for CRMP2 and pCRMP2 (T514); For all immunoblots, βactin served as a loading control. Molecular weight (MW) of resulting bands is given in kilodaltons (kD).
Protein extracts were made using a 50 mM Tris pH 8.0, […] NaCl, 0.5% NP-40 lysis solution. Resulting lysates were ran on 10% SDS-PAGE gels and transferred to Immobilon-FL PVDF (Millipore Corp., Billerica, Mass.). The membranes were blocked with 5% (wt/vol) bovine serum albumin in PBS-Tween-20 (0.2% vol/vol) and probed with primary antibodies against Eg5 (mouse, 1:4000, BD Biosciences, San Jose, Calif.), Olig2 (rabbit, 1:1000, abcam, San Francisco, Calif.), GFAP (DAKO; 1:10,000, Carpinteria, Calif.), CRMP2 (mouse, 1:1000, abgent, San Diego, Calif.), pCRMP2(T514) (rabbit, 1:1000, Cell Signaling, Beverly, Mass.), or β-actin (mouse, 1:8000, Sigma-Aldrich, St. Louis, Mo.) as a loading control. Secondary antibodies (LI-COR) were incubated in TBST+0.02% SDS and visualized with the LI-COR Odyssey near infrared imaging system (Lincoln, NB).

Cc1ccc(C(=O)N(CCCN)[C@@H](c2nc3cc(Cl)ccc3c(=O)n2Cc2ccccc2)C(C)C)cc1 [ispinesib, N-(3-amino-propyl)-n-[R-1-(3-benzyl-7-choloro-4-oxo-3,4-dihydroquinazolin-2-yl)-2-methyl-propyl]-4-methyl-benzamide methanesulfonate]
tumor volume ([1]; 10 mg/kg daily intraperitoneal, 7 consecutive days): significantly reduced | tumor weight ([1]; 10 mg/kg daily intraperitoneal, 7 consecutive days, day 7): significantly reduced | Sox2 positive cells in end stage tumors ([1]; 10 mg/kg daily, 7 days): no Sox2 positive cells | process length in GSCs [2]: appreciably attenuated | phosphorylation of 141 cytoskeleton proteins [3]: no significant changes in phosphorylation | phospho-CRMP2 (T514) [4]: significant increase
